Experimental data published in US10766869B2, “Triazoles for the treatment of demyelinating dieases” (Vertex Pharmaceuticals Incorporated, priority 2015, dated 2020).

System: primary rat mixed cortical cells
Assay: In vitro myelination assay (MBP positive myelin strands, fold myelin pixels above background)
Type: cell-based
Settings: Rattus norvegicus, relative to baseline of no added compound, read-out: Fold myelin pixels above background; for fold induction at 1 µM: 1.0 μM compound; for fold induction at 10 µM: 10.0 μM compound
Procedure, shortened: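 Fourteen-day treatment of primary P1 rat mixed cortical cultures, re-dosed at days 6 and 10, at 1.0 μM and 10.0 μM. MBP immunofluorescence was imaged at 10× and myelin strands quantified by software, normalised to untreated wells as fold above background.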

Structure (SMILES)	fold induction at 1 µM	fold induction at 10 µM
N#Cc1cc(Nc2ncn(-c3cccc(F)c3)n2)cc(N2CCOCC2)c1 [Compound 737, 3-[[1-(3-fluorophenyl)-1,2,4-triazol-3-yl]amino]-5-morpholino-benzonitrile]	10 to 100	10 to 100
Cc1cc(Nc2ncn(-c3cc(F)cc(F)c3)n2)cc(N(C)CCN2CCOCC2)c1 [Compound 738, N3-[1-(3,5-difluorophenyl)-1,2,4-triazol-3-yl]-N1,5-dimethyl-N1-(2-morpholinoethyl)benzene-1,3-diamine]	10 to 100	≤ 1
Cc1cc(N2CC(N3CCOCC3)C2)cc(Nc2ncn(-c3cc(F)cc(F)c3)n2)c1C [Compound 739, 1-(3,5-difluorophenyl)-N-[2,3-dimethyl-5-(3-morpholinoazetidin-1-yl)phenyl]-1,2,4-triazol-3-amine]	10 to 100	10 to 100
Cc1cc(Nc2ncn(-c3cnccn3)n2)cc(C2(C)CNC(=O)O2)c1 (stereo not shown) [Compound 741, 5-methyl-5-[3-methyl-5-[(1-pyrazin-2-yl-1,2,4-triazol-3-yl)amino]phenyl]oxazolidin-2-one]	10 to 100	1 to 10
Cc1cc(Nc2ncn(-c3cc(F)cc(F)c3)n2)cc(N2CC(N3CC4CC(C3)O4)C2)c1 [Compound 742, 1-(3,5-difluorophenyl)-N-[3-methyl-5-[3-(6-oxa-3-azabicyclo[3.1.1]heptan-3-yl)azetidin-1-yl]phenyl]-1,2,4-triazol-3-amine]	10 to 100	≤ 1
Cc1cc(Nc2ncn(-c3cc(F)cc(F)c3)n2)c(F)c(N2CC3(COC3)C2)c1 [Compound 743, 1-(3,5-difluorophenyl)-N-[2-fluoro-5-methyl-3-(2-oxa-6-azaspiro[3.3]heptan-6-yl)phenyl]-1,2,4-triazol-3-amine]	1 to 10	10 to 100
Cc1cc(Nc2ncn(-c3cc(F)cc(F)c3)n2)nc(C2CCNCC2)c1 [Compound 744, N-[1-(3,5-difluorophenyl)-1,2,4-triazol-3-yl]-4-methyl-6-(4-piperidyl)pyridin-2-amine]	1 to 10	≤ 1
Cc1cc(Nc2ncn(-c3cc(F)cc(F)c3)n2)cc(N2CCC(N3CC(F)(F)C3)CC2)c1 [Compound 745, N-[3-[4-(3,3-difluoroazetidin-1-yl)-1-piperidyl]-5-methyl-phenyl]-1-(3,5-difluorophenyl)-1,2,4-triazol-3-amine]	10 to 100	≤ 1
Cc1cc(Nc2ncn(-c3cc(F)cc(F)c3)n2)cc(N2CC(N3C4CCC3COC4)C2)c1 [Compound 746, 1-(3,5-difluorophenyl)-N-[3-methyl-5-[3-(3-oxa-8-azabicyclo[3.2.1]octan-8-yl)azetidin-1-yl]phenyl]-1,2,4-triazol-3-amine]	10 to 100	10 to 100
Cc1cc(Nc2ncn(-c3cc(F)cc(F)c3)n2)cc(N2CCN(CCCN(C)C)CC2)c1 [Compound 747, 1-(3,5-difluorophenyl)-N-[3-[4-[3-(dimethylamino)propyl]piperazin-1-yl]-5-methyl-phenyl]-1,2,4-triazol-3-amine]	≤ 1	≤ 1
Cc1cc(Nc2ncn(-c3ccc(Cl)c(F)c3)n2)nc(N2CCN(C3COC3)CC2)c1 [Compound 749, N-[1-(4-chloro-3-fluoro-phenyl)-1,2,4-triazol-3-yl]-4-methyl-6-[4-(oxetan-3-yl)piperazin-1-yl]pyridin-2-amine]	10 to 100	10 to 100
Cc1cc(Nc2ncn(-c3cc(F)cc(F)c3)n2)cc(O[C@H]2C[C@H](N3CCOCC3)C2)c1 [Compound 752, 1-(3,5-difluorophenyl)-N-[3-methyl-5-(3-morpholinocyclobutoxy)phenyl]-1,2,4-triazol-3-amine]	10 to 100	1 to 10
Clc1cc(Nc2ncn(-c3cnccn3)n2)cc(N2CC(N3CCOCC3)C2)c1 [Compound 753, N-[3-chloro-5-(3-morpholinoazetidin-1-yl)phenyl]-1-pyrazin-2-yl-1,2,4-triazol-3-amine]	10 to 100	100 to 1000
COc1cc(Nc2ncn(-c3cc(F)cc(C(F)(F)F)c3)n2)cc(N2CCN(C3COC3)CC2)c1 [Compound 754, 1-[3-fluoro-5-(trifluoromethyl)phenyl]-N-[3-methoxy-5-[4-(oxetan-3-yl)piperazin-1-yl]phenyl]-1,2,4-triazol-3-amine]	10 to 100	1 to 10
Cc1cc(Nc2ncn(-c3cc(F)cc(F)c3)n2)nc(N2CCCC(O)C2)c1 (stereo not shown) [Compound 755, 1-[6-[[1-(3,5-difluorophenyl)-1,2,4-triazol-3-yl]amino]-4-methyl-2-pyridyl]piperidin-3-ol]	1 to 10	10 to 100
FC(F)c1cccc(-n2cnc(Nc3cc(C(F)F)cc(N4CC(N5CCOCC5)C4)n3)n2)c1 [Compound 756, 4-(difluoromethyl)-N-[1-[3-(difluoromethyl)phenyl]-1,2,4-triazol-3-yl]-6-(3-morpholinoazetidin-1-yl)pyridin-2-amine]	1 to 10	10 to 100
Cc1cc(Nc2ncn(-c3cc(F)cc(C(F)(F)F)c3)n2)cc(N2CCN(C3COC3)CC2)c1 [Compound 757, 1-[3-fluoro-5-(trifluoromethyl)phenyl]-N-[3-methyl-5-[4-(oxetan-3-yl)piperazin-1-yl]phenyl]-1,2,4-triazol-3-amine]	10 to 100	10 to 100
COc1cc(Nc2ncn(-c3ccc(Cl)c(F)c3)n2)nc(N2CCN(C3COC3)CC2)c1 [Compound 758, N-[1-(4-chloro-3-fluoro-phenyl)-1,2,4-triazol-3-yl]-4-methoxy-6-[4-(oxetan-3-yl)piperazin-1-yl]pyridin-2-amine]	10 to 100	10 to 100
Cc1cc(Nc2ncn(-c3cccc(C#N)c3)n2)cc(N2CCN(C3COC3)CC2)c1 [Compound 759, 3-[3-[3-methyl-5-[4-(oxetan-3-yl)piperazin-1-yl]anilino]-1,2,4-triazol-1-yl]benzonitrile]	1 to 10	1 to 10
Fc1cc(F)cc(-n2cnc(Nc3cc(N4CCN(C5COC5)CC4)nc(C(F)(F)F)c3)n2)c1 [Compound 760, N-[1-(3,5-difluorophenyl)-1,2,4-triazol-3-yl]-2-[4-(oxetan-3-yl)piperazin-1-yl]-6-(trifluoromethyl)pyridin-4-amine]	1 to 10	≤ 1
CCc1cc(Nc2ncn(-c3ccc(C)c(F)c3)n2)cc(N2CCN(C3COC3)CC2)c1 [Compound 761, N-[3-ethyl-5-[4-(oxetan-3-yl)piperazin-1-yl]phenyl]-1-(3-fluoro-4-methyl-phenyl)-1,2,4-triazol-3-amine]	1 to 10	≤ 1
CCc1cc(Nc2ncn(-c3ccc(C#N)cc3)n2)cc(N2CCN(C3COC3)CC2)c1 [Compound 762, 4-[3-[3-ethyl-5-[4-(oxetan-3-yl)piperazin-1-yl]anilino]-1,2,4-triazol-1-yl]benzonitrile]	≤ 1	≤ 1
N#Cc1cc(Nc2ncn(-c3cccnc3)n2)cc(N2CCOCC2)c1 [Compound 763, 3-morpholino-5-[[1-(3-pyridyl)-1,2,4-triazol-3-yl]amino]benzonitrile]	10 to 100	10 to 100
